Where “and” joins values, the source holds several entries; their conditions need not be identical. Equal entries are not always repeated. One block for each compound: values may come before it.
How the values were obtained:
BT-474 [1] = details: 72 h
In short: (§1)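 A 20 µl suspension of breast cancer cells was placed in 384-well plates that already contained compound at 5 concentrations in 10-fold steps across a compound-specific 10,000-fold range, and the plates were left for 72 h. CellTox Green fluorescence at 485/520 nm gave cell death, and CellTiter-Glo luminescence, read after 10 min at room temperature, gave viability. Each plate was normalised to 0.1 % DMSO and a positive kill control. EC50 was fitted from the curves and censored at the top concentration.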

BT-549 [2] = details: 72 h
In short: as §1

CAL-120 [3] = details: 72 h
In short: as §1

CAL-51 [4] = details: 72 h
In short: as §1

CAL-85-1 [5] = details: 72 h
In short: as §1

HCC1937 [6] = details: 72 h
In short: as §1

Hs578T [7] = details: 72 h
In short: as §1

MDA-MB-436 [8] = details: 72 h
In short: as §1

MDA-MB-453 [9] = details: 72 h
In short: as §1

MDA-MB-468 [10] = details: 72 h
In short: as §1

SK-BR-3 [11] = details: 72 h
In short: as §1

BT-474 [12] = experiment: normalised viability (% of control), CellTiter-Blue; higher = more viable cells (about 100 = DMSO control); details: incubation time: 72 h
In short: (§2)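 Each entry is normalised viability at a single listed concentration within a series. It comes from breast cancer cell lines incubated 72 h with compound in 384-well plates, then measured with CellTiter-Blue fluorescence at 560/590 nm. Every plate was normalised between vehicle (100) and a positive kill control (0).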

CAL-120 [13] = experiment: as above; details: incubation time: 72 h
In short: as §2

CAL-85-1 [14] = experiment: as above; details: incubation time: 72 h
In short: as §2

Hs578T [15] = experiment: as above; details: incubation time: 72 h
In short: as §2

MDA-MB-436 [16] = experiment: as above; details: incubation time: 72 h
In short: as §2

MDA-MB-468 [17] = experiment: as above; details: incubation time: 72 h
In short: as §2

BT-549 [18] = experiment: normalised viability (% of control), CellTiter-Blue; higher = more viable cells (100 = DMSO, 0 = benzethonium chloride kill control); details: incubation time: 72 h
Protocol: (§3)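 DSRT, CellTiter-Blue viability, 72 h incubation. Signal is normalised to DMSO and benzethonium chloride controls. Value is the normalised response at dose 1.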

CAL-120 [19] = experiment: as above; details: incubation time: 72 h
Protocol: as §3

CAL-148 = experiment: as above; details: incubation time: 72 h
Protocol: as §3

CAL-51 [20] = experiment: as above; details: incubation time: 72 h
Protocol: as §3

CAL-85-1 [21] = experiment: as above; details: incubation time: 72 h
Protocol: as §3

DU-4475 = experiment: as above; details: incubation time: 72 h
Protocol: as §3

HCC1599 = experiment: as above; details: incubation time: 72 h
Protocol: as §3

HCC1937 [22] = experiment: as above; details: incubation time: 72 h
Protocol: as §3

HDQ-P1 = experiment: as above; details: incubation time: 72 h
Protocol: as §3

Hs578T [23] = experiment: as above; details: incubation time: 72 h
Protocol: as §3

MDA-MB-231 [24] = experiment: as above; details: incubation time: 72 h
Protocol: as §3

MDA-MB-436 [25] = experiment: as above; details: incubation time: 72 h
Protocol: as §3

MDA-MB-453 [26] = experiment: as above; details: incubation time: 72 h
Protocol: as §3

MDA-MB-468 [27] = experiment: as above; details: incubation time: 72 h
Protocol: as §3

MFM-223 = experiment: as above; details: incubation time: 72 h
Protocol: as §3

SK-BR-3 [28] = experiment: as above; details: incubation time: 72 h
Protocol: as §3

MCF-10A = details: 72 h
In short: as §1

MDA-MB-231 [29] = details: 72 h
In short: as §1

BT-474 [30] = experiment: normalised viability (% of control), CellTiter-Blue; higher = more viable cells (100 = DMSO, 0 = benzethonium chloride kill control); details: 1 nM; incubation time: 72 h
Protocol: as §3

HCC1143 = experiment: as above; details: 1 nM; incubation time: 72 h
Protocol: as §3

- EC50, CellTiter-Glo (BT-474 [1]): 4.76 nM
- EC50, CellTiter-Glo (BT-549 [2]): 0.13 nM
- EC50, CellTiter-Glo (HCC1937 [6]): 0.24 nM
- EC50, CellTiter-Glo (MDA-MB-436 [8]): 0.76 nM
- EC50, CellTiter-Glo (MDA-MB-453 [9]): 1.65 nM
- EC50, CellTiter-Glo (MDA-MB-468 [10]): 0.13 nM
- EC50, CellTiter-Glo (SK-BR-3 [11]): 0.49 nM
Compound: CO[C@H]1C[C@@H]2CC[C@@H](C)[C@@](O)(O2)C(=O)C(=O)N2CCCC[C@H]2C(=O)O[C@H]([C@H](C)C[C@@H]2CC[C@@H](OCCO)[C@H](OC)C2)CC(=O)[C@H](C)/C=C(\C)[C@@H](O)[C@@H](OC)C(=O)[C@H](C)C[C@H](C)/C=C/C=C/C=C/1C [Everolimus]
- EC50, CellTiter-Glo (CAL-120 [3]): 0.67 nM
- EC50, CellTiter-Glo (CAL-51 [4]): 0.67 nM
- EC50, CellTiter-Glo (CAL-85-1 [5]): 0.22 nM
- EC50, CellTiter-Glo (Hs578T [7]): 0.18 nM
- normalised viability (BT-474 [12]; 1 nM): 76.6% and 65.5%
- normalised viability (CAL-120 [13]; 1 nM): 59.3% and 51.9%
- normalised viability (CAL-85-1 [14]; 0.3 nM): 73.8% and 72%
- normalised viability (Hs578T [15]; 1 nM): 61% and 59.5%
- normalised viability (MDA-MB-436 [16]; 1 nM): 87.7% and 75.2%
- normalised viability (MDA-MB-468 [17]; 1 nM): 72% and 74.4%
- normalised viability (BT-549 [18]; 0.1 nM): 81% and 93%
- normalised viability (CAL-120 [19]; 0.1 nM): 97.4% and 80.8%
- normalised viability (CAL-148; 0.1 nM): 93.9% and 95.7%
- normalised viability (CAL-51 [20]; 0.1 nM): 99.3% and 104%
- normalised viability (CAL-85-1 [21]; 0.1 nM): 89.2% and 76.6%
- normalised viability (DU-4475; 0.1 nM): 106% and 105%
- normalised viability (HCC1599; 0.1 nM): 101%
- normalised viability (HCC1937 [22]; 0.1 nM): 58% and 70.5%
- normalised viability (HDQ-P1; 0.1 nM): 87.3% and 89.8%
- normalised viability (Hs578T [23]; 0.1 nM): 58.9% and 73.8%
- normalised viability (MDA-MB-231 [24]; 0.1 nM): 94.9% and 73.3%
- normalised viability (MDA-MB-436 [25]; 0.1 nM): 104% and 86.3%
- normalised viability (MDA-MB-453 [26]; 0.1 nM): 93.7% and 90%
- normalised viability (MDA-MB-468 [27]; 0.1 nM): 105% and 87.7%
- normalised viability (MFM-223; 0.1 nM): 85% and 84%
- normalised viability (SK-BR-3 [28]; 0.1 nM): 95.7% and 89.7%

- EC50, CellTiter-Glo (BT-474 [1]): 2870 nM
- EC50, CellTiter-Glo (BT-549 [2]): 4440 nM
- EC50, CellTiter-Glo (HCC1937 [6]): 3900 nM
- EC50, CellTiter-Glo (MDA-MB-231 [29]): 2800 nM
- EC50, CellTiter-Glo (MDA-MB-436 [8]): 4810 nM
- EC50, CellTiter-Glo (MDA-MB-453 [9]): 3370 nM
- EC50, CellTiter-Glo (MDA-MB-468 [10]): 3050 nM
- EC50, CellTiter-Glo (SK-BR-3 [11]): 3330 nM
Compound: CCCCCCCCc1ccc(CCC(N)(CO)CO)cc1 [Fingolimod]
- EC50, CellTiter-Glo (CAL-51 [4]): 2040 nM
- EC50, CellTiter-Glo (CAL-85-1 [5]): 3340 nM
- EC50, CellTiter-Glo (MCF-10A): 3350 nM
- normalised viability (BT-474 [12]; 10 nM): 121%
- normalised viability (CAL-120 [13]; 10 nM): 91%
- normalised viability (CAL-85-1 [14]; 3 nM): 92.2%
- normalised viability (Hs578T [15]; 10 nM): 98.1%
- normalised viability (MDA-MB-436 [16]; 10 nM): 100%
- normalised viability (MDA-MB-468 [17]; 10 nM): 106%
- normalised viability (BT-474 [30]): 97.7%
- normalised viability (BT-549 [18]; 1 nM): 106%
- normalised viability (CAL-120 [19]; 1 nM): 82.3%
- normalised viability (CAL-148; 1 nM): 96.8%
- normalised viability (CAL-51 [20]; 1 nM): 117%
- normalised viability (CAL-85-1 [21]; 1 nM): 85.8%
- normalised viability (DU-4475; 1 nM): 122%
- normalised viability (HCC1143): 92.5%
- normalised viability (HCC1599; 1 nM): 105%
- normalised viability (HCC1937 [22]; 1 nM): 96.5%
- normalised viability (HDQ-P1; 1 nM): 130%
- normalised viability (Hs578T [23]; 1 nM): 97.6%
- normalised viability (MDA-MB-231 [24]; 1 nM): 95.6%
- normalised viability (MDA-MB-436 [25]; 1 nM): 113%
- normalised viability (MDA-MB-453 [26]; 1 nM): 94%
- normalised viability (MDA-MB-468 [27]; 1 nM): 106%
- normalised viability (MFM-223; 1 nM): 94%
- normalised viability (SK-BR-3 [28]; 1 nM): 102%

Compound: Cc1cc2c(C(C)C)c(O)c(O)c(C=O)c2c(O)c1-c1c(C)cc2c(C(C)C)c(O)c(O)c(C=O)c2c1O [Gossypol]
- normalised viability (BT-474 [12]; 100 nM): 115%
- normalised viability (CAL-120 [13]; 100 nM): 109%
- normalised viability (CAL-85-1 [14]; 30 nM): 101%
- normalised viability (Hs578T [15]; 100 nM): 137%
- normalised viability (MDA-MB-436 [16]; 100 nM): 106%
- normalised viability (MDA-MB-468 [17]; 100 nM): 101%

Source: the supplement of paper PMC4862054
